Results as given in US10406227B2, “Photoactivated molecules for light-induced modulation of the activity of electrically excitable cells and methods of using same” (University of Southern California, priority 2012, dated 2019).

How the values were obtained:
INS cells = test: Whole cell patch clamp, current-clamp membrane potential under blue light; type: cell-based, rat; conditions: for light-induced increase in membrane potential (depolarization): 10 μM ~2 min preincubation, 488 nm
Procedure: Membrane potential was monitored using whole cell patch clamp in current-clamp mode. Cultured cells (INS and HEK293) were plated on a glass-bottomed culture dishes 1-3 days prior to recording. Cells were incubated in standard extracellular solution with or without 10 μM RubpyC17 compound for approximately 1.5-2 minutes, then washed and incubated with standard extracellular solution without additional supplementation, or with 2-5 mM ascorbate, 100 μM sodium ferrocyanide, or 100-200 μM potassium ferricyanide, as indicated. The chamber was transferred to the microscope stage. Extracellular solution consisted of 140 mM NaCl, 2.8 mM KCl, 10 mM HEPES, 1 mM MgCl2, 2 mM CaCl2, 10 mM glucose, pH adjusted to 7.3, and osmolarity adjusted to 300-310. Conventional whole-cell patch clamp recordings were performed with an EPC-9 amplifier and Pulse software (HEKA Electronics). Pipette electrodes of 1.8-3.5 Mohm were fire polished before use. Intracellular solution consisted of: 145 mM KCl, 10 mM NaCl, 1 mM MgCl2, 1 mM EGTA, 2 mM ATP, 0.3 mM GTP and 10 mM HEPES, pH adjusted to 7.3 and osmolarity adjusted to 290-300 mOsm. To monitor changes in membrane voltage/potential, cells were patch clamped in current-clamp mode. Access resistances were in the range of 3-8 Mohm. Using Pulse, membrane potentials were recorded before, during and after illumination by the argon ion laser at 488 nm with an irradiance value of 0.458 mE s^−1 m^−2 or by a xenon lamp source through a 470/40 nm bandpass excitation filter with an irradiance value of 0.480 mE s^−1 m^−2. […]
Initial attempts were tied to INS and HEK cells, both cells that are not excitable under normal conditions (INS cells were maintained in low glucose <3 mM to prevent action potentials). […] To monitor the plasma membrane potential, the cells were patch-clamped in whole-cell configuration in current-clamp mode and membrane voltages were recorded while illuminating the cell at 488 nm (0.46-0.48 mE s^−1 m^−2), though other wavelengths are useful, depending on the embodiment.

chromaffin cells [1] = test: Voltage-clamp current-voltage relationship and steady-state activation before and during light; type: cell-based, mouse; conditions: before vs during light illumination
Source text: (§1) FIGS. 5A-5H depict data from various experiments related to characteristics of RubpyC17-loaded cells. […] Inset images shown to the right of trace confirmed proper integration of RubpyC17 in patched cells. FIGS. 5C-5E show the light-induced action potential firing in chromaffin cells was not due to biophysical changes in voltage-gated ion channels as there were no significant changes in current-voltage relationships (C-D) nor in steady-state activation curve (E) in RubpyC17-loaded chromaffin cells before (open circle) or during ([…]) light illumination. […] Peak inward currents from each stimulation jump were plotted against corresponding stimulating voltages (n=6). […] Data from representative cell is shown (n=5). […] Currents resulting from capacitor-like behavior of chromaffin cell membranes during hyperpolarizing jumps to −85 mV from a resting membrane potential of −80 mV were recorded 5 min following giga-seal formation for amphoterecin B (bottom trace) or 10 min following giga-seal formation for RubpyC17 (top trace).
To examine whether light-activated RubpyC17 can directly interact and open or block endogenous ion channels, HEK293T cells were preincubated with RubpyC17, and patch-clamped in a voltage-clamp configuration. Voltage-clamp configuration allowed the cells to be clamped at a potential where most voltage-gated ion channels are closed (approximately −80 mV). […]

chromaffin cells [2] = test: Cell-attached membrane perforation test (capacitive charging transient); type: cell-based, mouse; conditions: 18 μM in patch pipette; 10 minutes after gigaseal formation
Source text: as §1
Finally, to test whether illumination of RubpyC17 incorporated in cell membranes causes nonspecific membrane poration or other damage, 18 μM RubpyC17 was loaded inside a patch pipette and attached to a cell (gigaseal formation) in the cell-attached configuration. […]

## [Ru(bpy)2(bpy-C17)](PF6)2 [RubpyC17]
INS cells; 2 mM ascorbate
  light-induced increase in membrane potential (depolarization): 15.9 ± 4.6 mV
INS cells; absence of ascorbate
  light-induced increase in membrane potential (depolarization): 9.8 ± 4.5 mV
INS cells; NMDG for sodium, cesium for potassium, ascorbate present
  light-triggered depolarization with non-permeating ions: still persisted
Chromaffin cells [1]
  effect on biophysical properties of endogenous ion channels (I-V, steady-state activation): does not alter the biophysical properties of endogenous ion channels
Chromaffin cells [2]
  capacitive charging transient (membrane perforation): an increase in the capacitive charging transient was not detected
